Tested on: B16.BL6 melanoma cells
Experiment: Cell concentration and viability after conjugation, trypan blue (Example 11)
Type: cell-based
Method: Two flasks (300 cm^2) (TPP, Trasadingen Switzerland) of confluent B16.BL6 melanoma cells grown in DMEM containing 10% fetal calf serum (without P/S) at 37.5° C. in 5% CO2 were used for this experiment. Growth medium was removed from the cells and 25 mL of PBS (without Mg^2+ and Ca^2+) (Gibco Invitrogen, Taastrup, Denmark) was added to the cells and immediately removed again. Another 10 mL of PBS was added and removed, before cells were harvested with Cell Dissociation Solution C5914 (Sigma-aldrich, Saint Louis, Mo.) (3 mL per flask) and transferred to 10 mL tubes (TPP, Trasadingen Switzerland). The cells were centrifuged for 5 minutes at 300 G at 20° C. and the supernatant was discarded. Subsequently, cells were washed in PBS (without Mg^2+ and Ca^2+), centrifuged as above and resuspended in PBS (without Mg^2+ and Ca^2+). The concentration of the cell suspension was determined.
Five hundred mg of alpha-Gal trisaccharide-carbamate (9) was dissolved in PBS (without Mg^2+ and Ca^2+) (Gibco Invitrogen, Taastrup, Denmark) and passed through a sterile filter (Sartorius Minisart®, 0.20 my) (Sartorius, Goettingen, Germany). Eight different concentrations of conjugate were prepared. Two mL of each conjugate dilution was added to a flask with 2 mL of PBS (without Mg^2+ and Ca^2+) and 600 μl of cell suspension containing 10^6 B16.BL6 cells. The final volume of the flasks was 4.6 mL. The flasks were numbered 1 to 10. Flasks 1 and 10 contained no conjugate and served as controls. The cells were incubated with the conjugate for 3 hours and 25 minutes at 37° C. and 5% CO2.
After conjugation, cells from conjugation reaction 1 (non-conjugated cells), 2, 4, 6 and 8 were harvested with 10 mL of Cell Dissociation Solution C5914 (Sigma-Aldrich, Saint Louis, Mo.) and transferred to 10 mL tubes (TPP, Trasadingen Switzerland). Cells were centrifuged for 5 minutes at 300 G at 20° C. and resuspended in PBS (without Mg^2+ and Ca^2+). Finally, cells were centrifuged as before and resuspended in 100 μl TBS with 1% BSA. Cell concentration and viability was determined by microscopic evaluation of trypan blue stained cell samples. Cells from conjugation reaction 3, 5, 7, 9 and 10 (non-conjugated cells), were harvested the following day as described above. The cells were centrifuged once for 5 minutes at 300 G at 20° C. and resuspended in 100 μl TBS with 1% BSA. Cell concentration and viability was determined by microscopic evaluation of trypan blue stained cell samples.

[1] = reaction 2, 200 mg conjugate, 10^6 cells, PBS, 3 h 25 min 37° C.
[2] = reaction 3, 100 mg conjugate, measured 1 day after the conjugation procedure
[3] = reaction 5, 20 mg conjugate, measured 1 day after the conjugation procedure
[4] = reaction 7, 5 mg conjugate, measured 1 day after the conjugation procedure
[5] = reaction 9, 1 mg conjugate, measured 1 day after the conjugation procedure

O=C1N[C@@H]2O[C@H](CO)[C@@H](O[C@@H]3O[C@H](CO)[C@H](O)[C@H](O[C@H]4O[C@H](CO)[C@H](O)[C@H](O)[C@H]4O)[C@H]3O)[C@H](O)[C@H]2O1 [Compound 9, alpha-Gal trisaccharide-carbamate]
Cell concentration [1]: 3.50 × 10^6 cells/mL | Cell viability [1]: 58.9% | Cell concentration [2]: 3.08 × 10^6 cells/mL | Cell viability [2]: 65.6% | Cell concentration (reaction 4, 50 mg conjugate): 3.16 × 10^6 cells/mL | Cell viability (reaction 4, 50 mg conjugate): 1.9% | Cell concentration [3]: 1.90 × 10^6 cells/mL | Cell viability [3]: 0.0% | Cell concentration (reaction 6, 10 mg conjugate): 2.26 × 10^6 cells/mL | Cell viability (reaction 6, 10 mg conjugate): 16.8% | Cell concentration [4]: 2.02 × 10^6 cells/mL | Cell viability [4]: 34.7% | Cell concentration (reaction 8, 2 mg conjugate): 2.22 × 10^6 cells/mL | Cell viability (reaction 8, 2 mg conjugate): 8.1% | Cell concentration [5]: 2.12 × 10^6 cells/mL | Cell viability [5]: 16.0%

— patent US8785594B2, “Glycoproteins and glycosylated cells and a method for the preparation of the same” (Glycom A/S, priority 2007, dated 2014)
